The values below are quoted from earlier work in PMC3618964 (Journal of medicinal chemistry, 2010).

This data set addresses SaDHFR. Conditions: read-out: Ki value (SaDHFR).

Turning to `CCc1nc(N)nc(N)c1C#CCc1cc(OC)ccc1OC` [Compound 9], the Ki (usually the equilibrium dissociation constant of an inhibitor or competing ligand from its target) is 9.9 nM.
